Holding throughout (type): cell-based
One experiment has as its target T1, human-derived GPR40 (Homo sapiens, UniProt O14842).
T1 construct: The DNA fragment encoding human GPR40 was acquired by the following PCR procedures; expressed in transfected cells; host or cells: CHO-K1 (transient, Lipofectamine)
Put plainly: Intracellular calcium change (FLIPR) in CHO-K1 cells transiently expressing GPR40. The settings on record: added in 10^−5 M to 10^−6 M; no response in vector-only control cells. The method, then: The CHO-K1 cell line was cultured in HAM F-12 medium (Invitrogen) containing 10% fetal calf serum (Invitrogen), unless otherwise indicated. One day before transfection, 4.5×10^5 cells per 10 cm^2 were plated, followed by incubation in a CO2 incubator adjusted to a concentration of 5% CO2 at 37° C. for at least 15 hours. Using Lipofectamine reagent (Invitrogen), transfection procedures were carried out by modifications of the method attached to the reagent. When a 6-well plate was used for the incubator, the following procedures were performed. First, 2 tubes each having a 1.5 ml volume were prepared and 100 μl each of Opti-MEM-I medium (Invitrogen) was dispensed in each tube. Next, 1 μg of the expression vector was charged in one tube and in another tube, 6 μl of Lipofectamine reagent was charged, which were mixed together. The mixture was settled for 20 minutes at room temperature. To the solution, 800 μl of Opti-MEM-I medium was added and the resulting solution mixture for transfection was added to CHO-K1 cells, which had been previously washed with Opti-MEM-I medium. Then, the cells were incubated in a CO2 incubator for 6 hours. After the incubation, the cells were rinsed with PBS (Invitrogen), then scraped using 0.05% trypsin-EDTA solution (Invitrogen) and recovered by centrifugal operation. The cells obtained were counted and diluted to 5×10^4 cells per 200 μl of the medium. The dilution was dispensed onto a Black walled 96-well plate (Costar) in 200 μl each per well, followed by incubation overnight in a CO2 incubator. Various test samples were added to the CHO-K1 cells in which the receptor was transiently expressed by the transfection operation described above, whereby changes in the intracellular calcium ion level were determined using FLIPR (Molecular Device). In order to determine the changes in the intracellular calcium ion level on FLIPR, the cells were pre-treated by the following procedures. First, for the purpose of adding a fluorescent dye Fluo-3 AM (DOJIN) to the cells or washing the cells immediately before the FLIPR assay, an assay buffer was prepared. A solution obtained by adding 20 ml of 1M HEPES (pH 7.4) (DOJIN) to 1000 ml of HBSS (Invitrogen) was prepared (hereinafter HBSS/HEPES solution), to which 10 ml of a solution mixture obtained by dissolving 710 mg of Probenecid (Sigma) in 5 ml of 1N NaOH and further adding 5 ml of HBSS/HEPES solution was added. The resulting solution was used as the assay buffer. Next, 50 μg of Fluo-3AM was dissolved in 21 μl of DMSO (DOJIN) and an equal volume of 20% Pulronic acid (Molecular Probes) was added to and mixed with the solution. The mixture was then added to 10.6 ml of the assay buffer supplemented with 105 μl of fetal calf serum to prepare a fluorescent dye solution. The medium for the transfection-treated CHO-K1 cells was removed. Immediately thereafter, the fluorescent dye solution was dispensed in 100 μl each/well and the cells were incubated in a CO2 incubator for an hour so that the fluorescent dye was taken up into the cells. The cells after the incubation was washed with the assay buffer described above and set on FLIPR. A test sample added to the receptor-expressed CHO-K1 cells was prepared using the assay buffer and set on FLIPR at the same time. After various test samples were added thereto.
Following the pre-treatment above, changes in intracellular calcium level after addition of various test samples were measured on FLIPR.
Background: Calcium assays in cells follow changes in intracellular calcium, usually with a dye or a luminescent sensor.

The target in a further experiment is T2, Mouse GPR40 (Mus musculus, UniProt Q76JU9).
T2 construct: expressed in transfected cells
T2 sequence (Q76JU9 whole entry): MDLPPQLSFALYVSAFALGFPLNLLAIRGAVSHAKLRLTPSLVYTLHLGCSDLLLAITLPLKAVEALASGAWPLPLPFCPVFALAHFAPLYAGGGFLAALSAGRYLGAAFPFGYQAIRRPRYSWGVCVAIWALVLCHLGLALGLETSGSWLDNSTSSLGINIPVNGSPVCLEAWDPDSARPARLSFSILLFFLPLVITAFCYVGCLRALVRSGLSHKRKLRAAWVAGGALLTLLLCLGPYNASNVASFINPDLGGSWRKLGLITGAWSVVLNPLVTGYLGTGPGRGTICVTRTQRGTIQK
The experiment in a line: EC50 by FLIPR calcium assay in CHO cells stably expressing mouse GPR40. Here is the method:
(§1) For determination of EC50 values, the CHO cell lines in which human-, mouse- and rat-derived GPR40 was stably expressed were used. Unless otherwise indicated, these CHO cell lines were incubated in α-MEM medium (Invitrogen) supplemented with 10% fetal calf serum (Invitrogen).
(§2) On the day before assay, the cells incubated to almost confluent stage were rinsed with PBS (Invitrogen), then scraped in 0.05% trypsin-EDTA solution (Invitrogen) and recovered by centrifugal operation. The number of the cells obtained was counted and diluted so as to contain 3×10^5 cells/1 mL of the medium. The dilution was dispensed in a Black welled 96-well plate (Coster) in 100 μL/well, followed by incubation overnight in a CO2 incubator. To the thus prepared CHO cells, various test samples were added and the changes in intracellular calcium level in this case were measured using FLIPR (Molecular Device). In order to determine the changes in the intracellular calcium ion level on FLIPR, the cells were pre-treated by the following procedures.
(§3) First, for the purpose of adding a fluorescent dye Fluo-3 AM (DOJIN) to the cells or washing the cells immediately before the FLIPR assay, an assay buffer was prepared. A solution obtained by adding 20 mL of 1M HEPES (pH 7.4) (DOJIN) to 1000 mL of HBSS (Invitrogen) was prepared (hereinafter HBSS/HEPES solution), to which 10 mL of a solution mixture obtained by dissolving 710 mg of Probenecid (Sigma) in 5 mL of 1N NaOH and further adding 5 mL of HBSS/HEPES solution was added. The resulting solution was used as the assay buffer. Next, 50 μg of Fluo-3AM was dissolved in 21 μL of DMSO (Wako) and an equal volume of 20% Pulronic acid (Molecular Probes) was added to and mixed with the solution. The mixture was then added to 10.6 mL of the assay buffer supplemented with 105 μL of fetal calf serum to prepare a fluorescent dye solution. […], the medium for the CHO cells again plated in a Black welled 96-well plate was removed. Immediately thereafter, the fluorescent dye solution was dispensed in 100 μL each/well and the cells were incubated in a CO2 incubator for an hour so that the fluorescent dye was taken up into the cells. The cells after the incubation was washed with the assay buffer described above and set on FLIPR. […] After the pre-treatment above was made, the changes in intracellular calcium level after the addition of various test samples were measured on FLIPR.

Another experiment has as its target T3, human GPR40 (Homo sapiens, UniProt O14842).
T3 construct: The resulting fragment (ca. 1 kb) was introduced into vector pAKKO-111, which was used for transfection of CHO cells; expressed in transfected cells
The experiment in a line: EC50 by FLIPR calcium assay in CHO cells stably expressing human GPR40. The method, then: as §1, §2, §3

The target of a further experiment is T4, Rat GPR40 (Rattus norvegicus, UniProt Q8K3T4).
T4 construct: expressed in transfected cells
T4 sequence (Q8K3T4 whole entry): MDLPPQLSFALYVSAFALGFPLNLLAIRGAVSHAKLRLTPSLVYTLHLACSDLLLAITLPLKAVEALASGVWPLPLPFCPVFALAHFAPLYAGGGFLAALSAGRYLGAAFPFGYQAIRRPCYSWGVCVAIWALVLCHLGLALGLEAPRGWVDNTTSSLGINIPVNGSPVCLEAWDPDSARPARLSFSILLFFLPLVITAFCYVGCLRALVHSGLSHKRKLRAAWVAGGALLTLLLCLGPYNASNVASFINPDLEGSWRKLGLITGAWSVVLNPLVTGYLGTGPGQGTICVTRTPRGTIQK
Put plainly: EC50 by FLIPR calcium assay in CHO cells stably expressing rat GPR40. Here is the method: as §1, §2, §3

Experiment [1] has as its system mouse pancreatic β cell line MIN6. The experiment in a line: Insulin secretion from MIN6 in KRBH buffer (immunoassay). Particulars: 22 mM glucose KRBH, 90 minutes. Here is the method:
The mouse pancreatic β cell line MIN6 incubated in a flask was scraped in PBS containing 2.5 mM EDTA and plated in a 96-well plate followed by incubation for 2 days. The medium used was the same as in EXAMPLE 24, namely, 4.5 g/l of glucose-containing Dulbecco's Modified Eagle Medium (DMEM, Invitrogen, Inc.) supplemented with 15% fetal calf serum (ThermoTrace, Inc.), 5.5 μM 2-mercaptethanol (Invitrogen, Inc.), 20 mM HEPES pH 7.3, 100 U/ml penicillin and 100 μg/ml streptomycin. The cells were washed twice with modified Krebs-Ringer bicarbonate buffer (KRBH, 116 mM NaCl, 4.7 mM KCl, 1.2 mM KH2PO4, 1.2 mM MgSO4, 2.5 mM CaCl2, 25 mM NaHCO3, 24 mM HEPES, pH 7.3), followed by preincubation at 37° C. in 5% CO2 for 30 minutes. The fatty acid diluted/prepared using the aforesaid KRBH buffer added with 22 mM glucose was added to the cells after the preincubation, followed by incubation under the conditions of 37° C. in 5% CO2 for 90 minutes. After the incubation, the supernatant of the cells was recovered and stored in a frozen state. The insulin content in the supernatant was assayed using an insulin immunoassay kit commercially available (Amersham Pharmacia, Inc.).
Based on the method of EXAMPLE 25, effects of glucose level when added with fatty acids were examined. The level of glucose, which was added to KRBH upon the addition of fatty acids, was varied to 0, 5.5, 11 and 22 mM to study the effects.
The insulin secretion enhancing activity in the m40i103-introduced MIN6 cells using HVJ Envelope VECTOR KIT GenomONE based on the method of EXAMPLE 18 was examined. The insulin secretion enhancing activity by fatty acids was examined according to the method of EXAMPLE 25.
Based on the procedures of EXAMPLE 25, an essential prerequisite of Ca^2+ ions in the extracellular fluid was examined. In preincubation and incubation with a sample, Ca^2+ ions were removed and 0.1 mM EGTA, which was a reagent for chelating Ca^2+ ions, was further added, and then the insulin secretion enhancing activity by fatty acids was examined in this case.
Based on the method of EXAMPLE 25, effects of Ca^2+ channel blocker (Nifedipine) and MAP kinase inhibitor (PD98059) were examined. In preincubation and incubation with a sample, the insulin secretion enhancing activity by fatty acids was examined when Nifedipine (10 μM) or PD98059 (50 μM) was added.
It is known that fatty acids have the property of binding to albumin. Based on the method of EXAMPLE 25, effects were examined when bovine serum albumin (BSA) was present. In preincubation and incubation with a sample, the insulin secretion activity by fatty acids was examined when 0.1% BSA was added to the buffer.

Where [2] appears, read: intracellular calcium, FLIPR, stable CHO line.
Where [3] appears, read: intracellular calcium, FLIPR, stable CHO line, read-out: EC50 Mouse GPR40.
Where [4] appears, read: intracellular calcium, FLIPR, stable CHO line, read-out: EC50 Human GPR40.
Setting [5] is: intracellular calcium, FLIPR, stable CHO line, read-out: EC50 Rat GPR40.

Where two headings read alike, the source gives them in different places.

Usually EC50 stands for the midpoint of the concentration-response curve.

T1 sequence (O14842 whole entry, the tested form may be a part): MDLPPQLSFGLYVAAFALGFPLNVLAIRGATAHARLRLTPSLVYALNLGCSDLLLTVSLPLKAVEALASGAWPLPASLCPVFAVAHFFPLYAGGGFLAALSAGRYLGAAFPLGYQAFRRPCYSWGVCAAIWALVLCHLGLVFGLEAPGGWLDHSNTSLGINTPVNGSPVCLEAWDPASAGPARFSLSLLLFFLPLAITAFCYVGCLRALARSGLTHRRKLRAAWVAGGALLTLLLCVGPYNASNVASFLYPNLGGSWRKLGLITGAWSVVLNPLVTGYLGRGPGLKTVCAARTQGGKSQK
T3 sequence (O14842 whole entry, the tested form may be a part): as above

As for `CCCCCCCCC#CCC#CCC#CCCCC(=O)O` [5.8.11-eicosatriynoic acid], the “response (increase in intracellular calcium level) of GPR40-expressing CHO-K1 cells” value at human-derived GPR40 is “specifically responsive”.

For the compound `CCCCCC#CCC#CCC#CCC#CCCCC(=O)O` [5.8.11.14-eicosatetraynoic acid], the “response (increase in intracellular calcium level) of GPR40-expressing CHO-K1 cells” value on human-derived GPR40 was “specifically responsive”.

Regarding `CC(=O)O` [Acetic acid (C2), Acetic acid], at Mouse GPR40 (setting [2]), the “EC50 Mouse GPR40” value is “inactive”. In addition, the “EC50 Human GPR40” value at human GPR40 (setting [2]) was “inactive”. The “EC50 Rat GPR40” value on Rat GPR40 (setting [2]) is “inactive”.

On to `CCCCCCCCCC(=O)O` [Capric acid (C10), Capric acid], for which the EC50 at Mouse GPR40 (setting [3]) was above 100 µM; on human GPR40 (setting [4]) it was 43 ± 2.2 µM; on Rat GPR40 (setting [5]) it was above 100 µM.

With `CCCCCC(=O)O` [Caproic acid (C6), Caproic acid], at Mouse GPR40 (setting [2]), the “EC50 Mouse GPR40” value is “inactive”. Further, the “EC50 Human GPR40” value at human GPR40 (setting [2]) was “inactive”. For the same compound, on Rat GPR40 (setting [5]), the EC50 is above 300 µM.

Turning to `CCCCCCCC(=O)O` [Caprylic acid (C8), Caprylic acid], the “EC50 Mouse GPR40” value at Mouse GPR40 (setting [2]) is “inactive”. Besides, the EC50 at human GPR40 (setting [4]) and at Rat GPR40 (setting [5]) was above 300 µM in each case.

On to `CC/C=C\C/C=C\C/C=C\C/C=C\C/C=C\CCCC(=O)O` [Eicosapentaenoic acid (C20:5), Eicosapentaenoic acid], for which the EC50 was determined as 4.9 ± 0.8 µM at Mouse GPR40 (setting [3]), 2.3 ± 0.4 µM at human GPR40 (setting [4]) and 9.8 ± 0.6 µM on Rat GPR40 (setting [5]).

`CCCCCCCC/C=C/CCCCCCCC(=O)O` [Elaidic acid (C18:1), Elaidic acid]: the EC50 at Mouse GPR40 (setting [3]) stood at 6.5 ± 1.5 µM; at human GPR40 (setting [4]), 4.7 ± 0.4 µM; on Rat GPR40 (setting [5]), 11 ± 1.5 µM.

Regarding `CCCCCCCCCCCC(=O)O` [Lauric acid (C12), Lauric acid], the “response (increase in intracellular calcium level) of GPR40-expressing CHO-K1 cells” value on human-derived GPR40 was “specifically responsive”. The EC50 on Mouse GPR40 (setting [3]) amounted to 5.6 ± 1.6 µM; on human GPR40 (setting [4]) it was 5.7 ± 1.4 µM; on Rat GPR40 (setting [5]), 13 ± 3.3 µM.

Regarding `CCCCCCCCCCCCCC(=O)O` [Myristic acid (C14), Myristic acid], the EC50 at Mouse GPR40 (setting [3]) was 6 ± 0.8 µM.

As to `CCCCCCCCCCCCCCCCCC(=O)O` [Stearic acid (C18), Stearic acid], the EC50 at Mouse GPR40 (setting [3]), at human GPR40 (setting [4]) and at Rat GPR40 (setting [5]) was above 300 µM in each case.

For `CCCCC/C=C\C/C=C\C/C=C\C/C=C\CCCCCC(=O)O` [adrenic acid], on human-derived GPR40, the “response (increase in intracellular calcium level) of GPR40-expressing CHO-K1 cells” value is listed as “specifically responsive”.

With `CC(C)=CCCC(C)=CCCC(C)=CC(=O)O` [farnesoic acid], on human-derived GPR40, the “response (increase in intracellular calcium level) of GPR40-expressing CHO-K1 cells” value was “specifically responsive”.

Consider `CC/C=C\C/C=C\C/C=C\CCCCCCCC(=O)O` [α-Linolenic acid (C18:3), α-Linolenic acid], for which the EC50 at Mouse GPR40 was 3.6 ± 0.3 µM; at human GPR40, 2 ± 0.3 µM; at Rat GPR40 it was 4 ± 0.7 µM. The “insulin secretion enhancing activity” value in experiment [1] is on record as “significantly noted”.

Take docosatrienoic acid: the “response (increase in intracellular calcium level) of GPR40-expressing CHO-K1 cells” value on human-derived GPR40 is “specifically responsive”.

In the case of eicosadienoic acid, on human-derived GPR40, the “response (increase in intracellular calcium level) of GPR40-expressing CHO-K1 cells” value is recorded as “specifically responsive”.

As to eicosatrienoic acid, the “response (increase in intracellular calcium level) of GPR40-expressing CHO-K1 cells” value on human-derived GPR40 is given as “specifically responsive”.

These data come from patent US7214495B2, “Screening method” (Takeda Pharmaceutical Company Limited, priority 2002, dated 2007).
